Results from patent US11878967B2, “Crystalline forms of 1-(4-{[6-amino-5-(4-phenoxy-phenyl)-pyrimidin-4-ylamino]-methyl}-4-fluoro-piperidin-1-yl)-propenone, salt forms thereof, and processes to obtain” (Merck Patent GmbH, priority 2018, dated 2024).
In brackets after ≈: the same amount, converted by molar mass. Counter-ions that a name gives are not always drawn. Like-named read-outs stand apart in the source and are kept apart here.

Key:
Format in all cases: physicochemical
[1] = Mini-dissolution in FaSSIF medium pH 6.5 at 37° C.; conditions: for Dissolution levels in FaSSIF pH 6.5: 37° C.; for Dissolution level (2 h) in FaSSIF, factor higher than A1: compared to crystalline neat form A1
Experimental: Approximately 10-20 mg of 1-(4-{[6-Amino-5-(4-phenoxy-phenyl)-pyrimidin-4-ylamino]-methyl}-4-fluoro-piperidin-1-yl)-propenone were weighed into glass vials. 7 mL of FaSSIF medium (pH 6.5, prewarmed to 37° C.) were added and the suspension was shaken at 450 rpm at 37° C. After 30 min, 60 min and 120 min, 1 mL suspension was withdrawn and filtered through a 0.2 μm syringe filter. Clear filtrate was analysed by HPLC after suitable dilution to measure the amount of API dissolved.

[2] = Water Vapour Sorption isotherm (25° C.), DVS system from SMS
Experimental: DSC scan of form A1 was acquired on a Mettler-Toledo DSC 1 with a heating rate of 5 K/min, using nitrogen purge gas at 50 mL/min. TGA scan of form A1 was acquired on a Mettler-Toledo TGA 851 with a heating rate of 5 K/min, using nitrogen purge gas at 50 mL/min. […] Eur. Criteria (section 5.11.). Water Vapour Sorption isotherm was acquired on a DVS-Intrinsic system from SMS. […] Dissolution level of form A1 in Fasted-State Simulated Intestinal Fluid [FaSSIF, pH 6.5] at 37° C. was determined to be approx. 17 μg/mL after 2 h (see example 7). […]
All forms were characterized according to standard methods which are found in e.g. Rolf Hilfiker, ‘Polymorphism in the Pharmaceutical Industry’, Wiley-VCH. Weinheim 2006 (Chapter 6: X-Ray Diffraction, Chapter 6: Vibrational Spectroscopy, Chapter 3: Thermal Analysis, Chapter 9: Water Vapour Sorption, and references therein); and H. G. Brittain, ‘Polymorphism in Pharmaceutical Solids, Vol. 95, Marcel Dekker Inc., New York 1999 (Chapter 6 and references therein).

[3] = Thermodynamic solubility (24 h) at 37° C. of free base forms; conditions: for solubility thermodynamic at 24 h: 37 °C, thermodynamic from solid
Experimental: Approximately 10-20 mg of 1-(4-{[6-Amino-5-(4-phenoxy-phenyl)-pyrimidin-4-ylamino]-methyl}-4-fluoro-piperidin-1-yl)-propenone were weighed into a 4 mL glass vial. 1 mL of FaSSIF medium (pH 6.5) or USP Phosphate buffer pH 7.4 was added and the suspension was shaken for 24 h at 450 rpm at 37° C. After 1 h, 6 h and after 24 h the vials were checked for presence of undissolved compound and the pH was measured. If necessary, the pH was adjusted after 1 h and 6 h. The solid liquid separation was carried out using 1 mL syringe and 0.2 μm syringe filter. Clear filtrate was analysed by HPLC after suitable dilution to measure the amount of API dissolved.

[4] = relative humidity range 0-80% rh
[5] = relative humidity range 90-98% rh

Row | SMILES | Dissolution levels in FaSSIF pH 6.5 ([1]; 30 min) [μg/mL] | Dissolution levels in FaSSIF pH 6.5 ([1]; 60 min) [μg/mL] | Hygroscopicity classification acc. to Ph. Eur. criteria (section 5.11.) [2] | Water uptake levels [2, 4] [% m/m] | Water uptake levels [2, 5] [% m/m] | further results
1 | C=CC(=O)N1CCC(F)(CNc2ncnc(N)c2-c2ccc(Oc3ccccc3)cc2)CC1 [Free base form A1, 1-(4-{[6-Amino-5-(4-phenoxy-phenyl)-pyrimidin-4-ylamino]-methyl}-4-fluoro-piperidin-1-yl)-propenone] | 16 | 17 | slightly hygroscopic | ≤ 1 | ≤ 2 | Dissolution levels in FaSSIF pH 6.5 ([1]; 120 min (2 h)): 17 μg/mL; Dissolution levels in FaSSIF pH 6.5 ([1]; 120 min (2 h), listed as form A1): approx. 17 μg/mL; solubility thermodynamic at 24 h ([3]; FaSSIF (Fasted-State Simulated Intestinal Fluid), pH 6.5, fassif, Fasted-State Simulated Intestinal Fluid pH 6.5, read-out: Thermodynamic solubility FaSSIF pH 6.5): ~17 µg/mL (≈ 38 µM); solubility thermodynamic at 24 h ([3]; USP Phosphate buffer, pH 7.4, aqueous buffer, USP Phosphate buffer pH 7.4, read-out: Thermodynamic solubility PBS buffer 7.4): ~1 µg/mL (≈ 2.23 µM)
2 | C=CC(=O)N1CCC(F)(CNc2ncnc(N)c2-c2ccc(Oc3ccccc3)cc2)CC1 [Free base form A2, 1-(4-{[6-Amino-5-(4-phenoxy-phenyl)-pyrimidin-4-ylamino]-methyl}-4-fluoro-piperidin-1-yl)-propenone] | 7 | 8 | slightly hygroscopic | ≤ 1 | ≤ 2 | Dissolution levels in FaSSIF pH 6.5 ([1]; 120 min (2 h)): 8 μg/mL; Dissolution levels in FaSSIF pH 6.5 ([1]; 120 min (2 h), listed as form A2): approx. 8 μg/mL; Thermodynamic solubility FaSSIF pH 6.5 ([3]; Fasted-State Simulated Intestinal Fluid pH 6.5): 10 μg/mL; Thermodynamic solubility FaSSIF pH 6.5 ([3]; Fasted-State Simulated Intestinal Fluid pH 6.5, listed as form A2): approx. 10 μg/mL; Thermodynamic solubility PBS buffer 7.4 ([3]; USP Phosphate buffer pH 7.4): 2 µg/mL; Thermodynamic solubility PBS buffer 7.4 ([3]; USP Phosphate buffer pH 7.4, listed as form A2): approx. 2 μg/mL
3 | C=CC(=O)N1CCC(F)(CNc2ncnc(N)c2-c2ccc(Oc3ccccc3)cc2)CC1 [Fumarate-NF1, 1-(4-{[6-Amino-5-(4-phenoxy-phenyl)-pyrimidin-4-ylamino]-methyl}-4-fluoro-piperidin-1-yl)-propenone] | 14 | 18 | slightly hygroscopic | ≤ 1 | ≥ 5 | Dissolution level (2 h) in FaSSIF, factor higher than A1 ([1]; listed as Fumarate salt form NF1): ~2
4 | C=CC(=O)N1CCC(F)(CNc2ncnc(N)c2-c2ccc(Oc3ccccc3)cc2)CC1 [HBr-NF1, 1-(4-{[6-Amino-5-(4-phenoxy-phenyl)-pyrimidin-4-ylamino]-methyl}-4-fluoro-piperidin-1-yl)-propenone] | 23 | 27 | slightly hygroscopic | ≤ 1 | ≤ 5 | Dissolution level (2 h) in FaSSIF, factor higher than A1 [1]: ~3
5 | C=CC(=O)N1CCC(F)(CNc2ncnc(N)c2-c2ccc(Oc3ccccc3)cc2)CC1 [HBr-NF2, 1-(4-{[6-Amino-5-(4-phenoxy-phenyl)-pyrimidin-4-ylamino]-methyl}-4-fluoro-piperidin-1-yl)-propenone] |  |  | slightly hygroscopic | ≤ 1 | ≥ 5 | 
6 | C=CC(=O)N1CCC(F)(CNc2ncnc(N)c2-c2ccc(Oc3ccccc3)cc2)CC1 [HCl-NF1, 1-(4-{[6-Amino-5-(4-phenoxy-phenyl)-pyrimidin-4-ylamino]-methyl}-4-fluoro-piperidin-1-yl)-propenone] | 55 | 43 | slightly hygroscopic | ≤ 1 | ≤ 5 | Dissolution level (2 h) in FaSSIF, factor higher than A1 [1]: ~4

More lines, main results first:

Row | Dissolution levels in FaSSIF pH 6.5 ([1]; 30 min) [μg/mL] | Dissolution levels in FaSSIF pH 6.5 ([1]; 60 min) [μg/mL] | Hygroscopicity classification acc. to Ph. Eur. criteria (section 5.11.) [2] | Water uptake levels [2, 4] [% m/m] | Water uptake levels [2, 5] [% m/m] | SMILES | further results
7 |  |  | slightly hygroscopic | ≤ 1 | ≤ 5 | C=CC(=O)N1CCC(F)(CNc2ncnc(N)c2-c2ccc(Oc3ccccc3)cc2)CC1 [Maleate-NF1, 1-(4-{[6-Amino-5-(4-phenoxy-phenyl)-pyrimidin-4-ylamino]-methyl}-4-fluoro-piperidin-1-yl)-propenone] | 
8 |  |  | slightly hygroscopic | ≤ 1 | ≤ 5 | C=CC(=O)N1CCC(F)(CNc2ncnc(N)c2-c2ccc(Oc3ccccc3)cc2)CC1 [Mesylate-NF1, 1-(4-{[6-Amino-5-(4-phenoxy-phenyl)-pyrimidin-4-ylamino]-methyl}-4-fluoro-piperidin-1-yl)-propenone] | 
9 | 22 | 39 | slightly hygroscopic | ≤ 1 | ≤ 5 | C=CC(=O)N1CCC(F)(CNc2ncnc(N)c2-c2ccc(Oc3ccccc3)cc2)CC1 [Oxalate-NF1, 1-(4-{[6-Amino-5-(4-phenoxy-phenyl)-pyrimidin-4-ylamino]-methyl}-4-fluoro-piperidin-1-yl)-propenone] | Dissolution level (2 h) in FaSSIF, factor higher than A1 ([1]; listed as Oxalate salt form NF1): ~4
